Data published in publication PMC3070799 (Neuropharmacology, 2011).
Like-named read-outs stand apart in the source and are kept apart here.

Tests used:
mouse 5-HT3A = target: T1, mouse 5-HT3A (Mus musculus, UniProt P23979); assay: Granisetron competition binding
T1 construct: expressed in transfected cells
T1 sequence (P23979 24-483 isoform P23979-2 limits assumed): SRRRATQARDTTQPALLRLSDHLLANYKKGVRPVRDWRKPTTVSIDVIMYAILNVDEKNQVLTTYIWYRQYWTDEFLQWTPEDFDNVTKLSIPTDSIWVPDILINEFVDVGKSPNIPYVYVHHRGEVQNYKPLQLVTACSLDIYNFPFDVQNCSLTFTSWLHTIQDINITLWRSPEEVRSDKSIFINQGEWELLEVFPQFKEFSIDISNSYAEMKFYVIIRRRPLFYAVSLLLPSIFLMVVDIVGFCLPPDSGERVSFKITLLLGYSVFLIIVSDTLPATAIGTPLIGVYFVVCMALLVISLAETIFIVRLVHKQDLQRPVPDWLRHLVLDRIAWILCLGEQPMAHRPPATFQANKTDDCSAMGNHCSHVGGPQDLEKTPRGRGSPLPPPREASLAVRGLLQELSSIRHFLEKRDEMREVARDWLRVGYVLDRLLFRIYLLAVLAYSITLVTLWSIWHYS
Procedure: (§1) Competition binding (8 point) was performed on at least three separate plates of transfected cells. […] Reactions were incubated for at least 1 h at 4 °C and terminated by vacuum filtration using a Brandel cell harvester onto GF/B filters pre-soaked in 0.3% polyethyleneimine. Radioactivity was determined by scintillation counting using a Beckman BCLS6500 (Fullerton, California, USA). Data were analysed by iterative curve fitting (GraphPad Prism v3.02) according to the equation:(5) BL=Bmin+Bmax−Bmin/1+10^nH(logL50−logL) where L is the concentration of ligand present; BL is the binding in the presence of ligand concentration L; Bmin is the binding when L = 0; Bmax is the binding when L = ∞, L50 is the concentration of L which gives a binding equal to (Bmax + Bmin)/2; and nH is the Hill coefficient. Results are presented as mean ± S.E.M.. Statistical analysis was performed using ANOVA in conjunction with a Dunnett’s post-hoc test.

mouse 5-HT3AB = target: T2, mouse 5-HT3AB (Mus musculus, UniProt P23979+Q9JHJ5); assay: Granisetron competition binding
T2 construct: expressed in transfected cells
T2 sequence (P23979 24-483 isoform P23979-2 limits assumed): T1 sequence (P23979 24-483 isoform P23979-2 limits assumed)
T2 sequence (Q9JHJ5 22-437): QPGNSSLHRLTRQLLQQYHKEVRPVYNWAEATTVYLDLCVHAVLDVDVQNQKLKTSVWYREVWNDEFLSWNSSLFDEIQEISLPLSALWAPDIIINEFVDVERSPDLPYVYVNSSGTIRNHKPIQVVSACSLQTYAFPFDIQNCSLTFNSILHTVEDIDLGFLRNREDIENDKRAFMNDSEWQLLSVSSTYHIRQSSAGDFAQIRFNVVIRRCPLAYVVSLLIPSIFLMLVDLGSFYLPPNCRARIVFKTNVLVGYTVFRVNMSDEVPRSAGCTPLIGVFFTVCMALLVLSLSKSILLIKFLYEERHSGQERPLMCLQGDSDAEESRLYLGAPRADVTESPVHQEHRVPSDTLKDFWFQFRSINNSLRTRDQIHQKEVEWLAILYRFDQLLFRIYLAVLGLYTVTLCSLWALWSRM
Procedure: as §1

human 5-HT3AB receptors = target: T3, human 5-HT3AB receptors (Homo sapiens, UniProt O95264+P46098); format: binding
T3 construct: expressed in transfected cells; host or cells: Xenopus laevis oocytes (cRNA from pGEMHE)
T3 sequence (P46098 24-478): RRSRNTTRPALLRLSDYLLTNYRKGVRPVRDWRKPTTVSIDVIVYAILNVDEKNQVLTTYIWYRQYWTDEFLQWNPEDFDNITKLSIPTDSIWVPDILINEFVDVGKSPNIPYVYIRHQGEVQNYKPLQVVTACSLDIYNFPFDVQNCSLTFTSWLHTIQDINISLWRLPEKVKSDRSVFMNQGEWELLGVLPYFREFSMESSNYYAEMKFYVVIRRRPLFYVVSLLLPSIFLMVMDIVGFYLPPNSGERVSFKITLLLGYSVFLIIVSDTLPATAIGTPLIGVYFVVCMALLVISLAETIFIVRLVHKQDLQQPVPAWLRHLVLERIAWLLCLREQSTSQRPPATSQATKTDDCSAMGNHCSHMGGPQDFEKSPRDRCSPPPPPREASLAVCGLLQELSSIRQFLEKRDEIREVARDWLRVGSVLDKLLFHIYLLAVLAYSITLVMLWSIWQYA
T3 sequence (O95264 22-441): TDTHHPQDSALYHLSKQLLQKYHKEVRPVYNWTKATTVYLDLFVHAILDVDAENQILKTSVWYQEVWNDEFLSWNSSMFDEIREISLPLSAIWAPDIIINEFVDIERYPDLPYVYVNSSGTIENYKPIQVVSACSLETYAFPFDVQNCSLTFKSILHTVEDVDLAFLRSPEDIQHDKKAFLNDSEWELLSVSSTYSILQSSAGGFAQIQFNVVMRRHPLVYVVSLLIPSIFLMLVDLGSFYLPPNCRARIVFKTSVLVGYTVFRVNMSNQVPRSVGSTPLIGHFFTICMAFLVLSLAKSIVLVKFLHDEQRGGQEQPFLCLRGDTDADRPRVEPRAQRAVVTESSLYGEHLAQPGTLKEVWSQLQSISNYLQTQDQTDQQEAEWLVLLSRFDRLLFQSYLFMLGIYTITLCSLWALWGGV
Procedure: (§2) Human embryonic kidney (HEK) 293 cells were maintained on 90 mm tissue culture plates at 37 °C and 7% CO2 in a humidified atmosphere. They were cultured in DMEM:F12 with GlutaMAX™ I media (Dulbecco’s Modified Eagle’s Medium /Nutrient Mix F12 (1:1), Invitrogen, Paisley, UK) containing 10% foetal calf serum. For radioligand binding studies, cells in 90 mm dishes were transfected using polyethyleneimine (PEI): 30 μl PEI (1 mg /ml), 5 μl cDNA and 1 ml DMEM were incubated for 10 min at room temperature, added drop wise to a 80–90% confluent plate, and incubated for 3–4 days before use.
as §1

human 5-HT3A receptors = target: T4, human 5-HT3A receptors (Homo sapiens, UniProt P46098); format: binding
T4 construct: expressed in transfected cells; host or cells: Xenopus laevis oocytes (cRNA from pGEMHE)
T4 sequence (P46098 24-478): T3 sequence (P46098 24-478)
Procedure: as §2, §1

In the case of `CC(C)(C)[C@]1(O)CC2OC(=O)CC23C(=O)OC2OC(=O)[C@H](O)C231` (stereo partly drawn) [BB, bilobalide], the “Displacement of granisetron (0.5 nM)” value (mouse 5-HT3A; compound 2.5 mM) is reported as “not displaced”, the “Displacement of granisetron (0.5 nM)” value (mouse 5-HT3AB; compound 2.5 mM) is reported as “not displaced” and the “Effect on binding of [3H]granisetron (1 nM)” value (“Effect on binding” for short) (human 5-HT3AB receptors) is reported as “not affected”. For the same compound, the “Effect on binding” value (human 5-HT3A receptors) was “not affected”.
With `C=C(C)[C@@H]1[C@H]2OC(=O)[C@@H]1[C@]1(O)C[C@H]3O[C@]34C(=O)O[C@H]2[C@]14C` [PXN, picrotoxinin] the “Displacement of granisetron (0.5 nM)” value (mouse 5-HT3A; compound 5 mM) was “not displaced”, the “Displacement of granisetron (0.5 nM)” value (mouse 5-HT3AB; compound 5 mM) was “not displaced” and the “Effect on binding” value (human 5-HT3AB receptors; compound 5 mM) was “not affected”. For the same compound, the “Effect on binding” value (human 5-HT3A receptors; compound 5 mM) was “not affected”.
ginkgolide B [GB] was tested, and the “Displacement of granisetron (0.5 nM)” value (mouse 5-HT3A; compound 2.5 mM) was “not displaced”, the “Displacement of granisetron (0.5 nM)” value (mouse 5-HT3AB; compound 2.5 mM) was “not displaced” and the “Effect on binding” value (human 5-HT3AB receptors; compound 2.5 mM) was “not affected”. For the same compound, the “Effect on binding” value (human 5-HT3A receptors; compound 2.5 mM) was “not affected”.
